Measurements taken from patent US9187472B2 (AbbVie Inc., priority 2012, dated 2015).

Key:
[1] = molecular target: NAMPT (Homo sapiens, UniProt P43490); test: TR-FRET Binding Assay of NAMPT with PRPP; conditions: with 200 μM PRPP and 2.5 mM ATP; 2 nM NAMPT, 2 nM probe, 16 hours equilibration
In short: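 Human NAMPT (2 nM) with 2 nM probe and 1 nM Tb-anti-His antibody, plus 200 μM PRPP and 2.5 mM ATP, 2% DMSO. TR-FRET read after 16 h equilibration, permitting possible enzymatic modification of test compounds; data processing as for the substrate-free format.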

[2] = molecular target: NAMPT (human, recombinant, C-terminally His-tagged) (Homo sapiens, UniProt P43490); test: Time-Resolved Fluorescence Resonance Energy Transfer (TR-FRET) Binding Assay of NAMPT; conditions: without substrates; 6.8 nM NAMPT, 200 nM probe, 3 hours equilibration
In short: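 A TR-FRET probe-displacement assay used 6.8 nM His-tagged recombinant human NAMPT, 200 nM Oregon Green 488-labelled nicotinamide-competitive probe and 1 nM Tb-anti-His antibody. Buffer was HEPES pH 7.5 with NaCl, MgCl2, DTT and glycerol, plus 2% DMSO, equilibrated 3 h at room temperature. Em520/Em495 ratios, normalized to controls, gave IC50 by four-parameter logistic fit.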

[3] = system: PC3 cells; test: NAMPT Cell Proliferation Assay; assay type: cell-based; conditions: Homo sapiens, PC-3, 120 h, 5 days incubation, cell viability by Cell Titer Glo
In short: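 IC50 values derive from sigmoidal dose-response fits of percent inhibition of PC3 viability, measured by luminescence after 5 days of compound treatment. Cells (500/well, RPMI containing 10% heat-inactivated FBS) are allowed to attach overnight, and compounds are tested at 10-fold dilutions between 10 μM and 1×10^−5 μM.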

NAMPT, sequence (P43490 whole entry): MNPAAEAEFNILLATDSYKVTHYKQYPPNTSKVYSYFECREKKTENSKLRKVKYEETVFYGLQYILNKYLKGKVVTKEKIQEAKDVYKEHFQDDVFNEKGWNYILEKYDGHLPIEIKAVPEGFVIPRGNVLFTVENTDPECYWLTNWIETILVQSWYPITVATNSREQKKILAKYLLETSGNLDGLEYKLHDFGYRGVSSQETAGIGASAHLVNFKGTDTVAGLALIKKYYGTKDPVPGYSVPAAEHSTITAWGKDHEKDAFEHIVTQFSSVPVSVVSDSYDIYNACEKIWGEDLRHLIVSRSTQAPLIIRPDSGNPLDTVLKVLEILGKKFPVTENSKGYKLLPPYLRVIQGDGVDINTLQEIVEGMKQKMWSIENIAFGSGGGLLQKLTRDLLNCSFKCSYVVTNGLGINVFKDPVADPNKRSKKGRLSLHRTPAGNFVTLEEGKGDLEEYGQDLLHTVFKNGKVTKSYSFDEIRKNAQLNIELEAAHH
NAMPT (human, recombinant, C-terminally His-tagged), sequence (P43490 whole entry): as above

Row | IC50 [1] [µM] | IC50 [2] [µM] | IC50 [3] [µM] | SMILES
1 | 0.0002 | 0.22 | 0.00342 | CC(C)(C)OC(=O)N1CCC(c2ccc(C(=O)NCc3ccn4ccnc4c3)cc2)CC1 [Example 217, tert-butyl 4-{4-[(imidazo[1,2-a]pyridin-7-ylmethyl)carbamoyl]phenyl}piperidine-1-carboxylate]
2 | 0.00023 | 0.461 | 0.0431 | O=C(NCc1ccn2ccnc2c1)c1ccc(C2CCN(C(=O)c3cccnc3)CC2)cc1 [Example 537, N-(imidazo[1,2-a]pyridin-7-ylmethyl)-4-[1-(pyridin-3-ylcarbonyl)piperidin-4-yl]benzamide]
3 | 0.000356 | 0.189 | 0.00462 | COC[C@H]1CCCN1C(=O)c1ccc(C(=O)NCc2ccn3ccnc3c2)s1 [Example 823, N-(imidazo[1,2-a]pyridin-7-ylmethyl)-5-{[(2R)-2-(methoxymethyl)pyrrolidin-1-yl]carbonyl}thiophene-2-carboxamide]
4 | 0.000398 | 0.0231 | 0.00102 | Cc1ccsc1C(=O)N1CCC(c2ccc(C(=O)NCc3ccn4ccnc4c3)s2)C1 (stereo not drawn) [Example 793, N-(imidazo[1,2-a]pyridin-7-ylmethyl)-5-{1-[(3-methylthiophen-2-yl)carbonyl]pyrrolidin-3-yl}thiophene-2-carboxamide]
5 | 0.000401 | 0.495 | 0.00937 | O=C(NCc1ccn2ccnc2c1)c1ccc(C2CCN(C(=O)C3COCCO3)CC2)cc1 (stereo not drawn) [Example 233, 4-[1-(1,4-dioxan-2-ylcarbonyl)piperidin-4-yl]-N-(imidazo[1,2-a]pyridin-7-ylmethyl)benzamide]
6 | 0.00121 | 0.385 | 0.013 | O=C(NCc1ccc2nccn2c1)c1ccc(C2=CCN(C(=O)C3COCCO3)CC2)cc1 (stereo not drawn) [Example 102, 4-[1-(1,4-dioxan-2-ylcarbonyl)-1,2,3,6-tetrahydropyridin-4-yl]-N-(imidazo[1,2-a]pyridin-6-ylmethyl)benzamide]
7 | 0.000473 | 0.0194 | 0.00336 | CCCC(=O)N1CCC(c2ccc(NC(=O)NCc3ccn4ccnc4c3)cc2)CC1 [Example 709, 1-[4-(1-butanoylpiperidin-4-yl)phenyl]-3-(imidazo[1,2-a]pyridin-7-ylmethyl)urea]
8 | 0.000795 | > 10 | 8.17 | CCCC(=O)N1CC[C@H](Oc2ccc(C(=O)NCc3ccn4ccnc4c3)cc2)C1 [Example 350, 4-{[(3S)-1-butanoylpyrrolidin-3-yl]oxy}-N-(imidazo[1,2-a]pyridin-7-ylmethyl)benzamide]
9 | 0.000796 | 0.478 | 0.0744 | O=C(NCc1ccn2ccnc2c1)c1ccc(C2CCN(C(=O)CC3CCCCC3)C2)cc1 (stereo not drawn) [Example 607, 4-[1-(cyclohexylacetyl)pyrrolidin-3-yl]-N-(imidazo[1,2-a]pyridin-7-ylmethyl)benzamide]
10 | 0.000756 | 0.811 | 0.0587 | CC1(C(=O)N2CCC(c3ccc(C(=O)NCc4ccn5ccnc5c4)cc3)C2)CC1 (stereo not drawn) [Example 584, N-(imidazo[1,2-a]pyridin-7-ylmethyl)-4-{1-[(1-methylcyclopropyl)carbonyl]pyrrolidin-3-yl}benzamide]
11 | 0.000673 | 0.155 | 0.00927 | O=C(NCc1ccn2ccnc2c1)Nc1ccc(C2CCN(C(=O)CC3CCCO3)CC2)cc1 (stereo not drawn) [Example 225, 1-(imidazo[1,2-a]pyridin-7-ylmethyl)-3-{4-[1-(tetrahydrofuran-2-ylacetyl)piperidin-4-yl]phenyl}urea]
12 | 0.000647 | 0.068 | 0.0749 | O=C(NCc1ccn2ccnc2c1)c1ccc(-c2cnn(Cc3ccccc3)c2)o1 [Example 741, 5-(1-benzyl-1H-pyrazol-4-yl)-N-(imidazo[1,2-a]pyridin-7-ylmethyl)furan-2-carboxamide]
13 | 0.000684 | 0.0748 | 0.00999 | O=C(NCc1ccn2ccnc2c1)c1ccc(C2CN(C(=O)c3ccc(F)cc3F)C2)cc1 [Example 641, 4-[1-(2,4-difluorobenzoyl)azetidin-3-yl]-N-(imidazo[1,2-a]pyridin-7-ylmethyl)benzamide]
14 | 0.000917 | 0.236 | 0.00754 | COc1ccccc1C(=O)N1CCC(c2ccc(C(=O)NCc3ccn4ccnc4c3)cc2)C1 (stereo not drawn) [Example 587, N-(imidazo[1,2-a]pyridin-7-ylmethyl)-4-[1-(2-methoxybenzoyl)pyrrolidin-3-yl]benzamide]
15 | 0.000481 | 0.257 | 0.0286 | O=C(NCc1ccn2ccnc2c1)c1ccc(C2CCN(C(=O)c3ccc(F)cc3)CC2)cc1 [Example 508, 4-[1-(4-fluorobenzoyl)piperidin-4-yl]-N-(imidazo[1,2-a]pyridin-7-ylmethyl)benzamide]
16 | 0.000932 | 0.154 | 0.0716 | O=C(NCc1ccn2ccnc2c1)Nc1ccc(C2CCN(C(=O)c3ccc(F)c(F)c3)CC2)cc1 [Example 723, 1-{4-[1-(3,4-difluorobenzoyl)piperidin-4-yl]phenyl}-3-(imidazo[1,2-a]pyridin-7-ylmethyl)urea]
17 | 0.000173 | 0.582 | 0.0122 | COCCC(=O)N(CC1CCOC1)c1ncc(C(=O)NCc2ccc3nccn3c2)s1 (stereo not drawn) [Example 139, N-(imidazo[1,2-a]pyridin-6-ylmethyl)-2-[(3-methoxypropanoyl)(tetrahydrofuran-3-ylmethyl)amino]-1,3-thiazole-5-carboxamide]
18 | 0.000297 | 0.18 | 0.0643 | O=C(NCc1ccn2ccnc2c1)Nc1ccc(O[C@@H]2CCN(C(=O)CC3CC3)C2)cc1 [Example 332, 1-(4-{[(3R)-1-(cyclopropylacetyl)pyrrolidin-3-yl]oxy}phenyl)-3-(imidazo[1,2-a]pyridin-7-ylmethyl)urea]
19 | 0.000169 | 0.234 | 0.0348 | CCC(=O)C(=O)N1CCC(c2ccc(C(=O)NCc3ccn4ccnc4c3)cc2)CC1 [Example 518, N-(imidazo[1,2-a]pyridin-7-ylmethyl)-4-[1-(2-oxobutanoyl)piperidin-4-yl]benzamide]
20 | 0.000465 | 0.814 | 0.666 | O=C(NCc1ccn2ccnc2c1)Nc1ccc(C2CCN(C(=O)CN3CCOCC3)C2)cc1 (stereo not drawn) [Example 392, 1-(imidazo[1,2-a]pyridin-7-ylmethyl)-3-{4-[1-(morpholin-4-ylacetyl)pyrrolidin-3-yl]phenyl}urea]
21 | 0.000214 | 0.0055 | 0.0248 | O=C(CCC1CCCC1)Nc1ccc(NC(=O)NCc2ccn3ccnc3c2)cc1 [Example 281, 3-cyclopentyl-N-(4-{[(imidazo[1,2-a]pyridin-7-ylmethyl)carbamoyl]amino}phenyl)propanamide]
22 | 0.00238 | 0.0371 | 0.629 | CC(C)(C)OC(=O)N1CCC(c2ccc(NC(=O)NCc3cn4ccnc4cn3)cc2)CC1 [Example 680, tert-butyl 4-(4-{[(imidazo[1,2-a]pyrazin-6-ylmethyl)carbamoyl]amino}phenyl)piperidine-1-carboxylate]
23 | 0.000689 | 0.0443 | 0.00286 | O=C(NCc1ccn2ccnc2c1)Nc1ccc(C2CCN(C(=O)CC(F)(F)F)CC2)cc1 [Example 713, 1-(imidazo[1,2-a]pyridin-7-ylmethyl)-3-{4-[1-(3,3,3-trifluoropropanoyl)piperidin-4-yl]phenyl}urea]
24 | 0.000418 | 2.73 | 0.36 | O=C(Nc1ccc(C(=O)NCCCN2CCOCC2)cc1)Nc1ccc2nccn2c1 [Example 18, 4-[(imidazo[1,2-a]pyridin-6-ylcarbamoyl)amino]-N-[3-(morpholin-4-yl)propyl]benzamide]
25 | 0.000798 | 1.47 | 0.212 | CC1CC1C(=O)N1CCC(c2ccc(C(=O)NCc3ccn4ccnc4c3)cc2)C1 (stereo not drawn) [Example 580, N-(imidazo[1,2-a]pyridin-7-ylmethyl)-4-{1-[(2-methylcyclopropyl)carbonyl]pyrrolidin-3-yl}benzamide]
26 | 0.000791 | 0.378 | 0.0821 | O=C(NCc1ccn2ccnc2c1)c1ccc(C2CCN(C(=O)c3cc(F)cc(F)c3)CC2)cc1 [Example 530, 4-[1-(3,5-difluorobenzoyl)piperidin-4-yl]-N-(imidazo[1,2-a]pyridin-7-ylmethyl)benzamide]
27 | 0.000603 | 0.0388 | 0.00375 | O=C(NCc1ccn2ccnc2c1)c1ccc(C2CCN(C(=O)c3ccc(F)cc3F)C2)cc1 (stereo not drawn) [Example 592, 4-[1-(2,4-difluorobenzoyl)pyrrolidin-3-yl]-N-(imidazo[1,2-a]pyridin-7-ylmethyl)benzamide]
28 | 0.000307 | 2.63 | 0.853 | O=C(NCc1ccn2ccnc2c1)c1ccc(OC2CCN(C(=O)CC3CC3)CC2)cc1 [Example 414, 4-{[1-(cyclopropylacetyl)piperidin-4-yl]oxy}-N-(imidazo[1,2-a]pyridin-7-ylmethyl)benzamide]
29 | 0.000526 | 0.241 | 0.0105 | O=C(NCc1ccn2ccnc2c1)c1ccc(-c2cnn(C[C@@H]3CCCO3)c2)o1 [Example 742, N-(imidazo[1,2-a]pyridin-7-ylmethyl)-5-{1-[(2S)-tetrahydrofuran-2-ylmethyl]-1H-pyrazol-4-yl}furan-2-carboxamide]
